Values after ≈ are worked out from the molar mass of the structure shown.
Key:
[1] = system: Trypanosoma brucei rhodesiense STIB 900; experiment: In vitro assay for Trypanosoma brucei rhodesiense (resazurin); type: cell-based; settings: Trypanosoma brucei; STIB 900 blood stream forms, 72 h; means of two independent determinations ± deviation from the mean; read-out: IC50 Trypanosoma brucei rhodesiense
Procedure: Trypanosoma brucei rhodesiense STIB 900 strain, isolated in 1982 from a human patient in Tanzania and, after several mouse passages, cloned and adapted to axenic culture conditions, was used in this assay. Minimum essential medium (50 μL) supplemented with 25 mM HEPES, 1 g/L additional glucose, 1% MEM non-essential amino acids (100×), 0.2 mM 2-mercaptoethanol, 1 mM Na-pyruvate, and 15% heat inactivated horse serum was added to each well of a 96 well microtiter plate. Serial drug dilutions of seven 3-fold dilution steps covering a range from 90 to 0.123 μg/mL were prepared, and then 4 × 10^4 blood stream forms of T. b. rhodesiense STIB 900 in 50 μL were added to each well and the plate was incubated at 37 °C under a 5% CO2 atmosphere for 72 h. Resazurin solution (resazurin, 12.5 mg in 100 mL double-distilled water) (10 μL) was then added to each well and incubated for a further 2–4 h. At the end of the assay, the plates were read with a Spectramax Gemini XS microplate fluorometer (Molecular Devices Cooperation, Sunnyvale, CA, USA) using an excitation wavelength of 536 nm and an emission wavelength of 588 nm. Data were analyzed using the microplate reader software Softmax Pro (Molecular Devices Cooperation, Sunnyvale, CA, USA). Melarsoprol was used as standard drug.

[2] = system: T. cruzi Tulahuen strain C2C4; experiment: In vitro assay for Trypanosoma cruzi in L-6 cells (β-galactosidase/CPRG); type: cell-based; settings: Trypanosoma cruzi, L6; Tulahuen C2C4 in L-6 cells, 96 h; highest concentration tested 90 μg/mL; means of two determinations ± deviation
Procedure: Rat skeletal myoblasts (L-6 cells) were seeded in 96 well microtiter plates (2000 cells/well) in 100 μL RPMI 1640 medium with 10% FBS and 2 mM L-glutamine for 24 h. After that, the medium was removed and replaced by 100 μL per well containing 5000 trypomastigote forms of T. cruzi Tulahuen strain C2C4, containing the β-galactosidase (Lac Z) gene. The medium was removed from the wells after 48 h, and replaced with 100 μL fresh medium with or without a serial drug dilution of seven 3-fold dilution steps covering a range from 90 to 0.123 μg/mL. After 96 h of incubation, the plates were inspected under an inverted microscope to assure growth of the controls and sterility, after which the substrate CPRG/Nonidet ([…]) was added to all wells. A color reaction developed within 2–6 h and could be read photometrically at 540 nm. Data were transferred into the graphic program Softmax Pro (Molecular Devices Cooperation, Sunnyvale, CA, USA) and the IC50 values were calculated from the sigmoidal dose response curves. Benznidazole was the reference drug.

[3] = system: L. donovani (strain MHOM/ET/67/L82) amastigotes; experiment: In vitro assay for Leishmania donovani axenic amastigotes (resazurin); type: cell-based; settings: axenic amastigotes, 72 h, means of two determinations ± deviation, read-out: IC50 Leishmania donovani
Procedure: Amastigotes of L. donovani (strain MHOM/ET/67/L82) were grown in axenic culture at 37 °C in SM medium at pH 5.4 supplemented with 10% heat-inactivated FBS under an atmosphere of 5% CO2. Culture medium (100 μL) with 10^5 amastigotes from axenic culture with or without a serial drug dilution was seeded in 96 well microtiter plates. Serial drug was prepared covering a range of dilutions from 90 to 0.123 μg/mL. After 72 h of incubation, the plates were inspected under an inverted microscope to assure growth of the controls and sterile conditions. Subsequently, 10 μL resazurin solution (12.5 mg resazurin dissolved in 100 mL double-distilled water) was added to each well and the plates were incubated for another 2 h. The plates were then read with a Spectramax Gemini XS microplate fluorometer (Molecular Devices Cooperation, Sunnyvale, CA, USA) using an excitation wavelength of 536 nm and an emission wavelength of 588 nm. Data were analyzed using the software Softmax Pro (Molecular Devices Cooperation, Sunnyvale, CA, USA). A decrease of fluorescence (=inhibition) was expressed as percentage of the fluorescence of control cultures and plotted against the drug concentrations. From the sigmoidal inhibition curves, the IC50 values were calculated. Miltefosine was used as a reference drug.

P. falciparum K1 strain = experiment: In vitro assay for Plasmodium falciparum ([3H]-hypoxanthine incorporation); type: cell-based; settings: K1 strain (chloroquine- and pyrimethamine-resistant), erythrocytic stages, means of two determinations ± deviation, read-out: IC50 Plasmodium falciparum
Procedure: Activity against the erythrocytic stages of P. falciparum was determined using an in vitro modified [^3H]-hypoxanthine incorporation assay, using the chloroquine- and pyrimethamine-resistant K1 strain [68]. Compounds were dissolved in DMSO at 10 mg/mL and further diluted in medium before added to parasite cultures incubated in RPMI 1640 medium without hypoxanthine, supplemented with HEPES (5.94 g/l), NaHCO3 (2.1 g/L), neomycin (100 U/mL), AlbumaxR (5 g/L), and washed human red cells A+ at 2.5% haematocrit (0.3% parasitaemia). Serial drug dilutions of seven 3-fold dilution steps covering a range from 90 to 0.123 μg/mL were prepared. The 96 well plates were incubated in a humidified atmosphere at 37 °C; 4% CO2, 3% O2, 93% N2. After 48 h 50 μL of ^3H-hypoxanthine (=0.5 μCi) was added to each well of the plate. The plates were incubated for a further 24 h under the same conditions. The plates were then harvested with a Betaplate™ cell harvester (Wallac, Zurich, Switzerland), and the red blood cells transferred onto a glass fiber filter then washed with distilled water. The dried filters were inserted into a plastic foil with 10 mL of scintillation fluid, and counted in a Betaplate™ liquid scintillation counter (Wallac, Zurich, Switzerland). […] IC50 values were calculated from the sigmoidal inhibition curves using Microsoft Excel. Chloroquine was used as positive control drug.

[4] = In vitro assay for cytotoxicity on mammalian cells (resazurin); type: cell-based, rat; settings: rat skeletal myoblasts, 72 h; means of two determinations ± deviation; read-out: IC50 Cytotoxicity L6 cells
Procedure: Assays were performed in 96 well microtiter plates (4 × 10^4 L6 cells/well), each well containing 100 μL of RPMI 1640 medium supplemented with 1% L-glutamine (200 mM) and 10% FBS. L6 cells are a primary cell line derived from rat skeletal myoblasts. Serial drug dilutions of seven 3-fold dilution steps covering a range from 90 to 0.123 μg/mL were prepared. After 72 h of incubation, the plates were inspected under an inverted microscope to assure growth of the controls and sterile conditions. Resazurin solution (10 μL) (12.5 mg resazurin in 100 mL double-distilled water) was then added to each well and the plates incubated for another 2 h. The plates were then read with a Spectramax Gemini XS microplate fluorometer (Molecular Devices Cooperation, Sunnyvale, CA, USA) using an excitation wavelength of 536 nm and an emission wavelength of 588 nm. Data were analyzed using the microplate reader software Softmax Pro (Molecular Devices Cooperation, Sunnyvale, CA, USA). From the sigmoidal inhibition curves, the IC50 values were calculated. Podophyllotoxin was the positive control.

T. evansi = system: T. evansi; design: method as in PMID 26773165; settings: cited from earlier work

**Q.** Which results are given for `CC1=CC=C(C(C)C)CC1` [α-Terpinene]?
**A.** IC50 [1]: 3.1 ± 1.6 µg/mL (≈ 22.8 µM); IC50 [2]: 49.1 ± 7.3 µg/mL (≈ 360 µM); IC50 [3]: 10.5 ± 1.7 µg/mL (≈ 77.1 µM); IC50 (P. falciparum K1 strain): 3.7 ± 1.5 µg/mL (≈ 27.2 µM); IC50 [4]: 84.7 ± 4.3 µg/mL (≈ 622 µM); animal longevity of T. evansi-infected mice (in words) (T. evansi): extend animal longevity
